Laboratory results reported in patent US20250344734A1, “UNSATURATED FATTY ACIDS AND THEIR USE TO MODIFY TASTE” (Firmenich Incorporated, priority 2022, published 2025).

Tests used:
Assay type in all cases: cell-based
Conditions in all cases: unsaturated fatty acid concentration of 200 µM, cells stimulated with known bitter agonist
[1] = target: T1, T2R63 (TA2R20) (Homo sapiens, UniProt P59543); test: FLIPR calcium assay, block of bitter agonist response, T2R63
T1 construct: expressed in transfected cells; host or cells: cells expressing a promiscuous G protein (e.g., G16g44)
T1 sequence (P59543 1-309): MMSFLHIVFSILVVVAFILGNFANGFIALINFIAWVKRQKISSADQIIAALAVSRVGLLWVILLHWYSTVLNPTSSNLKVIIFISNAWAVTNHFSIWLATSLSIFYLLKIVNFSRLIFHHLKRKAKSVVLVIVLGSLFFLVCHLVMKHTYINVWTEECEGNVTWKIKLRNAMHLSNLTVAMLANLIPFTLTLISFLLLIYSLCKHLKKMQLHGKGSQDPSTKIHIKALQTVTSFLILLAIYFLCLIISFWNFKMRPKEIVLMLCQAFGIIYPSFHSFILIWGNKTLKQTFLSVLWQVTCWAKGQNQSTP
Procedure: (§1) Cells expressing a promiscuous […] (e.g., G16g44) were transfected with vectors encoding 18 functional bitter receptor cDNAs, with one receptor per transfection. The cells were transfected directly in 384-well format high-density plates and incubated for 28 hours. Later, cells were loaded with the Ca-specific dye Fluo4-AM. After an incubation of 60 minutes, excess dye is washed off, and cells are stimulated with a known bitter agonist for each receptor and various unsaturated fatty acids. Changes in intracellular fluorescence are recorded using a FLIPR instrument. Bitter antagonists and corresponding receptors are identified based on percentage inhibition of agonist's activity on a given receptor.
(§2) The above protocol was carried out using 16 different unsaturated fatty acids. A particular T2R receptor was identified as being antagonized by a particular unsaturated fatty acid if it triggered a >25% block of agonist's cellular response at 200 μM concentration of unsaturated fatty acid. […] Table 2 indicates the sixteen (16) compounds tested by their compound number from Table 1 above. The 18 bitter taste receptors screened are the human bitter taste receptors we named. […]

[2] = target: T2, T2R04 (TAS2R04) (Homo sapiens, UniProt Q9NYW5); test: FLIPR calcium assay, block of bitter agonist response, T2R04
T2 construct: expressed in transfected cells; host or cells: cells expressing a promiscuous G protein (e.g., G16g44)
T2 sequence (Q9NYW5 1-299): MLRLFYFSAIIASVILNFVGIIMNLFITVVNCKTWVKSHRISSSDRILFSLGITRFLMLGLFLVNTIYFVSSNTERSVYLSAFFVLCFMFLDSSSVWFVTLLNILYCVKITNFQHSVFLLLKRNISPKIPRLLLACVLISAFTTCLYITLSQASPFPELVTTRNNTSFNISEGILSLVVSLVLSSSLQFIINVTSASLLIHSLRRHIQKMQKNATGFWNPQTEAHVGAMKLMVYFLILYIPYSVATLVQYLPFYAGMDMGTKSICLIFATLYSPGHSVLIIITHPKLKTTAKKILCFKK
Procedure: as §1, §2

[3] = target: T3, T2R71 (TAS2R41) (Homo sapiens, UniProt P59536); test: FLIPR calcium assay, block of bitter agonist response, T2R71
T3 construct: expressed in transfected cells; host or cells: cells expressing a promiscuous G protein (e.g., G16g44)
T3 sequence (P59536 1-307): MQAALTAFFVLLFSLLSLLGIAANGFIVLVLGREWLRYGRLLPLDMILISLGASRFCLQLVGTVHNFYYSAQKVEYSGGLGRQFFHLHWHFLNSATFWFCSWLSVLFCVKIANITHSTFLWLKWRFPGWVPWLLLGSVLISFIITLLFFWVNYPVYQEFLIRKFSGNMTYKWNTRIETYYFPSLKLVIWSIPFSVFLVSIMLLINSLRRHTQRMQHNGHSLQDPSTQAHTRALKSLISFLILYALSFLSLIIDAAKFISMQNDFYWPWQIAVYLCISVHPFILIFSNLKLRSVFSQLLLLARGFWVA
Procedure: as §1, §2

[4] = target: T4, T2R13 (TAS2R13) (Homo sapiens, UniProt Q9NYV9); test: FLIPR calcium assay, block of bitter agonist response, T2R13
T4 construct: expressed in transfected cells; host or cells: cells expressing a promiscuous G protein (e.g., G16g44)
T4 sequence (Q9NYV9 1-303): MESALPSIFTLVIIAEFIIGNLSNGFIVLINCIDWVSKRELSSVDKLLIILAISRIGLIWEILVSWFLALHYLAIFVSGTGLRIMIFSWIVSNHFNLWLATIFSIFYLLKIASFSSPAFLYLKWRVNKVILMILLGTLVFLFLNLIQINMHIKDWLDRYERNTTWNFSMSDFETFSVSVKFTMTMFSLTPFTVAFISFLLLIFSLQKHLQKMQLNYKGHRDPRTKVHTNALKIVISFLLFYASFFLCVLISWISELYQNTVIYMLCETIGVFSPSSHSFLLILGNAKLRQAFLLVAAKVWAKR
Procedure: as §1, §2

[5] = target: T5, T2R61 (TAS2R43) (Homo sapiens, UniProt P59537); test: FLIPR calcium assay, block of bitter agonist response, T2R61
T5 construct: expressed in transfected cells; host or cells: cells expressing a promiscuous G protein (e.g., G16g44)
T5 sequence (P59537 1-309): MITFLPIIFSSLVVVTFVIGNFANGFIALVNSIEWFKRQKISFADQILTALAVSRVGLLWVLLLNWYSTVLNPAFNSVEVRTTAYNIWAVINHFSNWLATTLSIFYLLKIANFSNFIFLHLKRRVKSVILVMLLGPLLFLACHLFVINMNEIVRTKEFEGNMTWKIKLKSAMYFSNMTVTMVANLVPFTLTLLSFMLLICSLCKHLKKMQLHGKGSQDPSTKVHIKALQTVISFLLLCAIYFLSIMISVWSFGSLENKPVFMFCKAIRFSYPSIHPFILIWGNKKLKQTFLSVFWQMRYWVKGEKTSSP
Procedure: as §1, §2

[6] = target: T6, T2R16 (TAS2R16) (Homo sapiens, UniProt Q9NYV7); test: FLIPR calcium assay, block of bitter agonist response, T2R16
T6 construct: expressed in transfected cells; host or cells: cells expressing a promiscuous G protein (e.g., G16g44)
T6 sequence (Q9NYV7 1-291): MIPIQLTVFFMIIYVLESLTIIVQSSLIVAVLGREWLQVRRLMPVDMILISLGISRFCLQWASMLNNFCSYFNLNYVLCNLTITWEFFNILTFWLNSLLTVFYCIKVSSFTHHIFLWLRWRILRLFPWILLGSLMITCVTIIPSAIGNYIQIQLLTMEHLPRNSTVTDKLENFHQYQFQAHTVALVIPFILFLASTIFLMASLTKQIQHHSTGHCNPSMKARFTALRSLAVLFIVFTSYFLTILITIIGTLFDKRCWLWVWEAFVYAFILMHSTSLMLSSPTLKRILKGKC
Procedure: as §1, §2

[7] = target: T7, T2R67 (TAS2R50) (Homo sapiens, UniProt P59544); test: FLIPR calcium assay, block of bitter agonist response, T2R67
T7 construct: expressed in transfected cells; host or cells: cells expressing a promiscuous G protein (e.g., G16g44)
T7 sequence (P59544 1-299): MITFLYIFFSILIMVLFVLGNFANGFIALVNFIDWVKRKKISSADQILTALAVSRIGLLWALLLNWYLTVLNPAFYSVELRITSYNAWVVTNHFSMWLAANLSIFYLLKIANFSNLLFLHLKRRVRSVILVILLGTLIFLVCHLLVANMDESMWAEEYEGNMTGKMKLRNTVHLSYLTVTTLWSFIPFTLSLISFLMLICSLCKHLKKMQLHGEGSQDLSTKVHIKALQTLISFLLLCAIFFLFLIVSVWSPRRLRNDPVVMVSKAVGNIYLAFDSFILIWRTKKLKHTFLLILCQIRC
Procedure: as §1, §2

[8] = target: T8, T2R03 (TAS2R03) (Homo sapiens, UniProt Q9NYW6); test: FLIPR calcium assay, block of bitter agonist response, T2R03
T8 construct: expressed in transfected cells; host or cells: cells expressing a promiscuous G protein (e.g., G16g44)
T8 sequence (Q9NYW6 1-316): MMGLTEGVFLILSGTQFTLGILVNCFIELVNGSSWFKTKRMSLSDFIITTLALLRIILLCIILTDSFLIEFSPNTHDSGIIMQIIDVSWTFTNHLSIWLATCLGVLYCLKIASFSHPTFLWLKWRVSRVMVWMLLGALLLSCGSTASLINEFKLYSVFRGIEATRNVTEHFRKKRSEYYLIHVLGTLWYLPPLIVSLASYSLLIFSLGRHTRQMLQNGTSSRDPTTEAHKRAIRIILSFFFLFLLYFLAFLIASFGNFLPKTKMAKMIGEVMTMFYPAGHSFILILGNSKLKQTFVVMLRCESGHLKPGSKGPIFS
Procedure: as §1, §2

- percentage block of cellular response over baseline, 63 [1]: 30%
- percentage block of cellular response over baseline, 04 [2]: >99%
- percentage block of cellular response over baseline, 71 [3]: >30%
- percentage block of cellular response over baseline, 13 [4]: >30%
- percentage block of cellular response over baseline, 61 [5]: >85%
- percentage block of cellular response over baseline, 16 [6]: >25%
- percentage block of cellular response over baseline, 67 [7]: 30%
- percentage block of cellular response over baseline, 03 [8]: >30%
Compound: CCCCC/C=C/C(=O)O [Compound 103]
